Where a SMILES comes first, the peptide text is derived from it.
Experiments:
[1] = Solubility in aqueous buffer; assay type: physicochemical; conditions: pH 7.2, aqueous buffer
[2] = Stability of the maleimide moiety of MAL-FMS-NHS in aqueous solutions (GSH/DTNB); assay type: physicochemical
Method: MAL-FMS-NHS (1 mM) was incubated at room temperature in H2O (pH 6.0), in 0.007 M acetic acid (pH˜4.0), in 0.1 M phosphate buffer (pH 7.4), and in 0.1 M NaHCO3 (pH 8.5). At the indicated time points, aliquots were allowed to react with a slight excess of GSH (15 min at pH 7.2) and the concentration of unreacted GSH was determined with 5,5-dithiobis(2-nitrobenzoic acid) (DTNB).
Stability of the MAL-functional moiety in aqueous solutions. In order to test the stability of the maleimide function of MAL-FMS-NHS in aqueous solutions at different pH values, MAL-FMS-NHS (1 mM) was incubated at room temperature in water (pH 6.0), in 0.007M acetic acid (pH˜4.0), in 0.1M phosphate buffer (pH 7.4), and in 0.1M NaHCO3 (pH 8.5). At several time points, aliquots were allowed to react with a slight excess of reduced glutathione (GSH) (15 min at pH 7.2) and the concentration of unreacted GSH was determined with DTNB (5,5′-dithio-bis-2-nitrobenzoic acid, Ellman's reagent), by measuring the absorbance of the produced yellow colored 5-thio-2-nitrobenzoic acid (TNB) at 405 or 412 nm.

physchem = conditions: buffer, pH 8.5

solubility [1] | half-life at 1 mM ([2]; 0.1 M NaHCO3 aqueous solution, 0.1M NaHCO3 pH 8.5, room temperature, read-out: t1/2 of destruction of the maleimide moiety (converted)) | stability of the maleimide function ([2]; pH 4 to 6, over a day or two) | stability of the maleimide function ([2]; pH 7.2) | Structure (SMILES) | half-life (physchem)
> 10000 µg/mL | 2.7 ± 0.3 h | fully stable | stable over a period of several hours | O=C(CCN1C(=O)C=CC1=O)Nc1ccc2c(c1)C(COC(=O)ON1C(=O)CCC1=O)c1cc(S(=O)(=O)O)ccc1-2 (centres unmarked) [MAL-FMS-NHS, N-[2-(maleimido-propionylamino)-7-sulfo-fluoren-9-yl-methoxycarbonyloxy]-succinimide] | 
 |  |  |  | CC[C@H](C)[C@H](NC(=O)[C@H](CCC(=O)O)NC(=O)[C@H](C)NC(=O)OCC1c2cc(NC(=O)CCN3C(=O)C=CC3=O)ccc2-c2ccc(S(=O)(=O)O)cc21)C(=O)N[C@@H](CO)C(=O)NCC(=O)N[C@@H](CCC(N)=O)C(=O)N[C@@H](CC(C)C)C(=O)N[C@@H](CO)C(=O)N[C@@H](Cc1ccc(O)cc1)C(=O)N[C@H](C(=O)N[C@@H](CCCNC(=N)N)C(=O)N[C@@H](CC(=O)O)C(=O)N[C@H](C(=O)N[C@@H](CC(N)=O)C(=O)N[C@@H](CO)C(=O)N[C@@H](Cc1c[nH]c2ccccc12)C(=O)N[C@@H](CCC(N)=O)C(=O)N[C@@H](Cc1c[nH]cn1)C(=O)N[C@H](C(=O)N[C@@H](Cc1c[nH]c2ccccc12)C(=O)N[C@H](C(=O)N[C@@H](CC(N)=O)C(=O)N[C@H](C(=O)N[C@@H](CO)C(=O)N[C@H](C(=O)N[C@@H](CCC(=O)O)C(=O)N[C@@H](CC(N)=O)C(=O)O)[C@@H](C)CC)C(C)C)[C@@H](C)O)[C@@H](C)CC)C(C)C)C(C)C (some centres unmarked) [Mal-FMS-Peptide 27] (HELM PEPTIDE1{[O=C1C=CC(=O)N1CCC(=O)[*:2]].[O=C(OCC1c2cc(N[*:1])ccc2-c2ccc(S(=O)(=O)O)cc21)[*:2]].A.E.I.S.G.Q.L.S.Y.V.R.D.V.N.S.W.Q.H.I.W.T.N.V.S.I.E.N}$$$$V2.0; N-terminus and C-terminus assumed) | 8.4 h

— US9433683B2, “Reversible pegylated drugs” (Yeda Research and Development Co., Ltd., priority 2003, dated 2016)
